Patent US8883778B2, “Cyclic inhibitors of 11 beta-hydroxysteroid dehydrogenase 1” (Vitae Pharmaceuticals, Inc., priority 2009, dated 2014)
pIC50: −log10 of the molar value.

Columns and labels:
[1] = target: T1, 11β-HSD1 (Homo sapiens, UniProt P28845); experiment: In vitro inhibition of 11β-HSD1 with HTRF technology, cortisol generated by human liver microsomes; format: biochemical; set-up: detecting cortisol generated from cortisterone by human liver microsomes; from tissue; host or cells: human liver microsomes; settings: 1 hour at 37° C., cortisone 80 nM
Description: Briefly, compounds were incubated for 1 hour at 37° C. in Tris buffer (20 mM tris, 5 mM EDTA, pH 6.0) containing NADPH (200 μM) and cortisone (80 nM). Cortisol generated in the reaction is then detected with a competitive immunoassay, involving two HTRF conjugates: cortisol linked to XL665 and anti-cortisol antibody labeled with Europium cryptate. The incubation period for detection reaction was typically 2 hours. The amount of cortisol was determined by reading the time-resolved fluorescence of the wells (Ex 320/75 nm; Em 615/8.5 nm and 665/7.5 nm). The ratio of the two emission signals was then calculated (Em665*10000/Em615). […] Each assay also contained a calibration curve with cortisol to transform the fluorescent data into cortisol concentrations. Percent inhibition of each compound was determined relative to the carbenoxolone signal.

[2] = target: T1, 11β-HSD1; experiment: Inhibition of a microsomal preparation of 11β-HSD1, scintillation proximity assay; format: biochemical; set-up: expressed in transfected cells; host or cells: CHO cells (microsomes); settings: microsomes from CHO cells overexpressing human 11β-HSD1; for inhibition at 0.1 µM: at 100 nM
Description: All reactions were carried out at rt in 96 well clear flexible PET Microbeta plates (PerkinElmer). […] After a 10 minute pre-incubation, 50 μL of enzyme solution containing microsomes isolated from CHO cells overexpressing human 11β-HSD1 (10-20 μg/ml of total protein) was added, and the plates were incubated for 90 minutes at rt. The reaction was stopped by adding 50 μl of the SPA beads suspension containing 10 μM 18β-glycyrrhetinic acid, 5 mg/ml protein A coated YSi SPA beads (GE Healthcare) and 3.3 μg/ml of anti-cortisol antibody (East Coast Biologics) in Superblock buffer (Bio-Rad). The plates were shaken for 120 minutes at rt, and the SPA signal corresponding to [^3H]cortisol was measured on a Microbeta plate reader.

T1 sequence (P28845 whole entry): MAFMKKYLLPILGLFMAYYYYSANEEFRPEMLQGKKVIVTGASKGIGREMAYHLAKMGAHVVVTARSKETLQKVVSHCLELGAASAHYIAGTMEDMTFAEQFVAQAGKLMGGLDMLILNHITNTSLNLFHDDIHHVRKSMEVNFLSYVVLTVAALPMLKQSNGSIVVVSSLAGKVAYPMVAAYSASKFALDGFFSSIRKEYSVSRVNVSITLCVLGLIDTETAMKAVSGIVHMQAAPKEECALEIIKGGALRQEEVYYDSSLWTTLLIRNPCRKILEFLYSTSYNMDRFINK

pIC50 [1] | inhibition at 0.1 µM [2] | pIC50 [2] | SMILES
7.54 | – | – | C[C@@H](c1ccc(C#Cc2ccn(C)c(=O)c2)cc1)N1CC[C@](CC(C)(C)O)(c2ccccc2)OC1=O [Example 30, (S)-6-(2-Hydroxy-2-methyl-propyl)-3-{(S)-1-[4-(1-methyl-2-oxo-1,2-dihydro-pyridin-4-ylethynyl)-phenyl]ethyl}-6-phenyl-[1,3]oxazinan-2-one]
– | 93.6% | 8.74 | C=C(C)C[C@]1(c2ccccc2)CCN([C@@H](C)c2ccc(C#CC(C)(C)NS(C)(=O)=O)cc2)C(=O)O1 [Example 22, N-(2-methyl-4-(4-((S)-1-((R)-6-(2-methylallyl)-2-oxo-6-phenyl-1,3-oxazinan-3-yl)ethyl)phenyl)but-3-yn-2-yl)methanesulfonamide]
– | 89.8% | 8.38 | CC(=O)NC1(C#Cc2ccc([C@H](C)N3CC[C@](CC(C)(C)O)(c4ccccc4)OC3=O)cc2)CCCCC1 [Example 14, N-(1-((4-((S)-1-((S)-6-(2-hydroxy-2-methylpropyl)-2-oxo-6-phenyl-1,3-oxazinan-3-yl)ethyl)phenyl)ethynyl)cyclohexyl)acetamide]
– | 50.5% | 7.06 | C[C@@H](c1ccc(C#CC2(O)CCN(C)CC2)cc1)N1CC[C@](CC(C)(C)O)(c2ccccc2)OC1=O [Example 11, (S)-3-((S)-1-(4-((4-hydroxy-1-methylpiperidin-4-yl)ethynyl)phenyl)ethyl)-6-(2-hydroxy-2-methylpropyl)-6-phenyl-1,3-oxazinan-2-one]
7.52 | – | – | C[C@@H](c1ccc(C#Cc2ccc(=O)n(C)c2)cc1)N1CC[C@](CC(C)(C)O)(c2ccccc2)OC1=O [Example 31, (S)-6-(2-Hydroxy-2-methyl-propyl)-3-{(S)-1-[4-(1-methyl-6-oxo-1,6-dihydro-pyridin-3-ylethynyl)-phenyl]ethyl}-6-phenyl-[1,3]oxazinan-2-one]
– | 82.5% | 7.91 | C[C@@H](c1ccc(C#CC2(N)CCCCC2)cc1)N1CC[C@](CC(C)(C)O)(c2ccccc2)OC1=O [Example 13, (S)-3-((S)-1-(4-((1-aminocyclohexyl)ethynyl)phenyl)ethyl)-6-(2-hydroxy-2-methylpropyl)-6-phenyl-1,3-oxazinan-2-one]
– | 93.5% | 8.28 | C[C@@H](c1ccc(C#CC(C)(C)C(=O)NC2CC2)cc1)N1CC[C@](CC(C)(C)O)(c2ccccc2)OC1=O [Example 7, N-cyclopropyl-4-(4-((S)-1-((S)-6-(2-hydroxy-2-methylpropyl)-2-oxo-6-phenyl-1,3-oxazinan-3-yl)ethyl)phenyl)-2,2-dimethylbut-3-ynamide]
– | 94.5% | 8.43 | COC(=O)NC(C)(C)C#Cc1ccc([C@H](C)N2CC[C@](CC(C)(C)O)(c3ccccc3)OC2=O)cc1 [Example 18, methyl 4-(4-((S)-1-((S)-6-(2-hydroxy-2-methylpropyl)-2-oxo-6-phenyl-1,3-oxazinan-3-yl)ethyl)phenyl)-2-methylbut-3-yn-2-ylcarbamate]
– | 84.9% | 7.92 | CC(=O)NC(C)(C)C#Cc1ccc([C@H](C)N2CC[C@](CC(C)(C)O)(c3ccccc3)OC2=O)cc1 [Example 17, N-(4-(4-((S)-1-((S)-6-(2-hydroxy-2-methylpropyl)-2-oxo-6-phenyl-1,3-oxazinan-3-yl)ethyl)phenyl)-2-methylbut-3-yn-2-yl)acetamide]
– | 56.1% | 7.21 | C[C@@H](c1ccc(C#CC2(O)CNC2)cc1)N1CC[C@](CC(C)(C)O)(c2ccccc2)OC1=O [Example 24, (S)-6-(2-hydroxy-2-methylpropyl)-3-((S)-1-(4-((3-hydroxyazetidin-3-yl)ethynyl)phenyl)ethyl)-6-phenyl-1,3-oxazinan-2-one]
– | 84.7% | 8.16 | C[C@@H](c1ccc(C#CC2(O)CCOCC2)cc1)N1CC[C@](CC(C)(C)O)(c2ccccc2)OC1=O [Example 10, (S)-6-(2-hydroxy-2-methylpropyl)-3-((S)-1-(4-((4-hydroxytetrahydro-2H-pyran-4-yl)ethynyl)phenyl)ethyl)-6-phenyl-1,3-oxazinan-2-one]
– | 92.4% | 8.62 | COC(=O)NC1(C#Cc2ccc([C@H](C)N3CC[C@](CC(C)(C)O)(c4ccccc4)OC3=O)cc2)CCCCC1 [Example 15, Methyl 1-((4-((S)-1-((S)-6-(2-hydroxy-2-methylpropyl)-2-oxo-6-phenyl-1,3-oxazinan-3-yl)ethyl)phenyl)ethynyl)cyclohexylcarbamate]
– | 92.2% | 8.38 | CNC(=O)NC(C)(C)C#Cc1ccc([C@H](C)N2CC[C@](CC(C)(C)O)(c3ccccc3)OC2=O)cc1 [Example 20, 1-(4-(4-((S)-1-((S)-6-(2-hydroxy-2-methylpropyl)-2-oxo-6-phenyl-1,3-oxazinan-3-yl)ethyl)phenyl)-2-methylbut-3-yn-2-yl)-3-methylurea]
– | 94.1% | 8.44 | CC(=O)N1CC(O)(C#Cc2ccc([C@H](C)N3CC[C@](CC(C)(C)O)(c4ccccc4)OC3=O)cc2)C1 [Example 25, (S)-3-((S)-1-(4-((1-acetyl-3-hydroxyazetidin-3-yl)ethynyl)phenyl)ethyl)-6-(2-hydroxy-2-methylpropyl)-6-phenyl-1,3-oxazinan-2-one]
– | 86% | 7.87 | C[C@@H](c1ccc(C#CC(C)(C)C(=O)O)cc1)N1CC[C@](CC(C)(C)O)(c2ccccc2)OC1=O [Example 4, 4-(4-((S)-1-((S)-6-(2-hydroxy-2-methylpropyl)-2-oxo-6-phenyl-1,3-oxazinan-3-yl)ethyl)phenyl)-2,2-dimethylbut-3-ynoic acid]
– | 99.8% | 8.96 | C[C@@H](c1ccc(C#CC(C)(C)N2CCOC2=O)cc1)N1CC[C@](CC(C)(C)O)(c2ccccc2)OC1=O [Example 3, (S)-6-(2-hydroxy-2-methylpropyl)-3-((S)-1-(4-(3-methyl-3-(2-oxooxazolidin-3-yl)but-1-ynyl)phenyl)ethyl)-6-phenyl-1,3-oxazinan-2-one]
– | 103% | 8.77 | COc1cc(C#Cc2ccc([C@H](C)N3CC[C@](CC(C)(C)O)(c4ccccc4)OC3=O)cc2)ccn1 [Example 28, (S)-6-(2-hydroxy-2-methylpropyl)-3-((S)-1-(4-((2-methoxypyridin-4-yl)ethynyl)phenyl)ethyl)-6-phenyl-1,3-oxazinan-2-one]
– | 89.1% | 8.72 | C[C@@H](c1ccc(C#CC2(O)CCCC2)cc1)N1CC[C@](CC(C)(C)O)(c2ccccc2)OC1=O [Example 2, (S)-6-(2-hydroxy-2-methylpropyl)-3-((S)-1-(4-((1-hydroxycyclopentyl)ethynyl)phenyl)ethyl)-6-phenyl-1,3-oxazinan-2-one]
– | 96.6% | 9.00 | C[C@@H](c1ccc(C#Cc2ccccn2)cc1)N1CC[C@](CC(C)(C)O)(c2ccccc2)OC1=O [Example 9, (S)-6-(2-hydroxy-2-methylpropyl)-6-phenyl-3-((S)-1-(4-(pyridin-2-ylethynyl)phenyl)ethyl)-1,3-oxazinan-2-one]
